One test relates to GABA-AT. Particulars: cited from earlier work.
Test [1] relates to Type I T. gondii tachyzoites. In words: Effect of TgOAT inactivators on T. gondii in vitro (YFP RH tachyzoites in HFF). Particulars: HFF host cells, 72 hours, tested into the millimolar range. Type of test: cell-based, Toxoplasma gondii. On the procedure:
HFFs were grown to confluence in black, flat-bottomed 96-well microplates. […] Control triplicates with only fibroblasts and with pyrimethamine and sulfadiazine (the current standard of treatment of T. gondii infection) were also conducted. The cells and parasites were then incubated at 37° C. for 72 hours. Fluorescence was measured using a Bio-Tek Synergy™ H4 Hybrid Multi-Mode Microplate Reader.

For test [2], the system named is P. falciparum parasite, D6 (Sierra Leone). In words: Malaria SYBR Green I-based fluorescence (MSF) assay. Type of test: cell-based, Plasmodium falciparum. Particulars: concentrations up to 10000 ng/mL, data not shown.
A further test relates to TgOAT. Particulars: for KI (inactivation): read-out: KI (inhibition constant of inactivation), 10 mM L-ornithine; for KI (inactivation) / kinact/KI / kinact (rate constant of enzyme inactivation): time-dependent inactivators; for KI (inactivation) / kinact (rate constant of enzyme inactivation): pH 8.0, 37° C.; for activity in inactivating TgOAT (in words): summary of Table 1; for selectivity of inactivation, TgOAT versus GABA-AT and human OAT (in words): compared with literature data on GABA-AT and human OAT; for pKi: read-out: Ki (reversible inhibition), reversible inhibitors, calculated from the IC50 value.

Another test addresses T1, human OAT (Homo sapiens, UniProt P04181).
T1 sequence (P04181 36-439 limits assumed): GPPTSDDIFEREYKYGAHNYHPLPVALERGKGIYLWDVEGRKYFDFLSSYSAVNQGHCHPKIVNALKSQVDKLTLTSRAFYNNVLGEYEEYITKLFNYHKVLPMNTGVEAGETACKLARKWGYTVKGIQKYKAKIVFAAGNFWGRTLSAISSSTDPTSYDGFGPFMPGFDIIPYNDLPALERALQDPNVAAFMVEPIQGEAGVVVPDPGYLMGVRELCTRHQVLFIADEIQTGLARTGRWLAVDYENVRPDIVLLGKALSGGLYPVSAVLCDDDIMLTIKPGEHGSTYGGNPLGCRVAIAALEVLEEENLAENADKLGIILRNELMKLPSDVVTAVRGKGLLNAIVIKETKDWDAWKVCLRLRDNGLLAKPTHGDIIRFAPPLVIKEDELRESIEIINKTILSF
Particulars: cited from earlier work.

The test system of test [3] is glutamate decarboxylase (GAD). The following applies: cited from earlier work.
Test [4] deals with aspartate aminotransferase (AspAT). The following applies: cited from earlier work.

pKi: −log10 of the molar value. Some results are limits rather than exact numbers.

Consider `NC(CF)CCC(=O)O` (stereo not shown) [5-Fluoro-4-aminopentanoic acid, reference compound], for which the “activity against GABA-AT (in words)” value in the test with GABA-AT was “very efficient inactivator”.

Turning to `N[C@H]1C[C@@H](C(=O)O)CC1=C(F)F` [Compound 1], in test [1], the “inhibition of tachyzoite replication in vitro” value (“inhibition” below) is “no effects on active T. gondii infection”. The “antimalarial activity in live-cell parasite assay” value (“antimalarial activity” below) in test [2] is reported as “no antimalarial activity”. In addition, in the test on TgOAT, the KI (inactivation) is 4.4 µM, the “activity in inactivating TgOAT (in words)” value is reported as “high activity in inactivating TgOAT”, the kinact/KI amounted to 41670 M⁻¹ s⁻¹ and the “kinact (rate constant of enzyme inactivation)” value amounted to 11 min⁻¹. Besides, at human OAT, the “activity against human OAT (in words)” value is on record as “potent inactivator”. Further, the “activity against GABA-AT (in words)” value with GABA-AT was “extremely potent inactivator”.

On to `NC1CC(C(=O)O)CC1=C(C(F)(F)F)C(F)(F)F` (stereo not shown) [Compound 2], for which the “inhibition” value in test [1] is recorded as “no effects on active T. gondii infection”. Also, the “antimalarial activity” value in test [2] is recorded as “no antimalarial activity”. In the test on TgOAT, the KI (inactivation) was 4.8 µM, the “activity in inactivating TgOAT (in words)” value was “high activity in inactivating TgOAT”, the kinact/KI stood at 15300 M⁻¹ s⁻¹ and the “kinact (rate constant of enzyme inactivation)” value was 4.4 min⁻¹. Also, the “activity against human OAT (in words)” value at human OAT is “highly potent inactivator”. Further, in the test on GABA-AT, the “activity against GABA-AT (in words)” value was “weak reversible inhibitor”.

For the compound `NC1CC(C(=O)O)CC1=CC(F)(F)F` (stereo not shown) [Compound 3], in the test with TgOAT, the KI (inactivation) was found to be 30 µM, the kinact/KI was 83.3 M⁻¹ s⁻¹ and the “kinact (rate constant of enzyme inactivation)” value amounted to 0.15 min⁻¹.

As for `NC1CC(C(=O)O)CC1=CC(F)(F)F` (stereo not shown) [Compound 4], in the test on TgOAT, the KI (inactivation) turned out to be 21 µM, the kinact/KI came to 183 M⁻¹ s⁻¹ and the “kinact (rate constant of enzyme inactivation)” value was determined as 0.23 min⁻¹.

Regarding `NC1CC(C(=O)O)CC1=C(Cl)Cl` (stereo not shown) [Compound 5], in test [1], the “inhibition” value is listed as “no effects on active T. gondii infection”. The “antimalarial activity” value in test [2] is listed as “no antimalarial activity”. Also, in the test on TgOAT, the “selectivity of inactivation, TgOAT versus GABA-AT and human OAT (in words)” value (shortened to “selectivity of inactivation”) is on record as “high specific inactivation towards TgOAT but not GABA-AT or human OAT”; the KI (inactivation) stood at 15 µM; the “activity in inactivating TgOAT (in words)” value is on record as “high activity in inactivating TgOAT”; the kinact/KI worked out at 4830 M⁻¹ s⁻¹. In addition, the “kinact (rate constant of enzyme inactivation)” value on TgOAT stood at 4.4 min⁻¹. Moreover, at human OAT, the “activity against human OAT (in words)” value is listed as “very weak reversible inhibitor”. Moreover, in the test on GABA-AT, the “activity against GABA-AT (in words)” value was “very weak reversible inhibitor”.

Consider `NC1CC(C(=O)O)C=C1C(F)(F)C(F)(F)F` (stereo not shown) [Compound 6], for which, in the test with TgOAT, the KI (inactivation) worked out at 21 µM, the kinact/KI was found to be 167 M⁻¹ s⁻¹ and the “kinact (rate constant of enzyme inactivation)” value was determined as 0.21 min⁻¹.

As to `NC1CC(C(=O)O)CC1F` (stereo not shown) [Compound 7], in the test with TgOAT, the KI (inactivation) was 2100 µM, the kinact/KI was 86.7 M⁻¹ s⁻¹ and the “kinact (rate constant of enzyme inactivation)” value was found to be 11 min⁻¹.

For `NC1CC(C(=O)O)CC1(F)F` (stereo not shown) [Compound 8], the “off-target activity at GAD (in words)” value in test [3] is given as “significant”. Besides, in the test on TgOAT, the KI (inactivation) amounted to 130 µM, the kinact/KI amounted to 1000 M⁻¹ s⁻¹ and the “kinact (rate constant of enzyme inactivation)” value was 7.8 min⁻¹.

Turning to `NC1CC(C(=O)O)CC1Br` (stereo not shown) [Compound 9], in the test on TgOAT, the KI (inactivation) stood at 2600 µM, the kinact/KI was found to be 31.7 M⁻¹ s⁻¹ and the “kinact (rate constant of enzyme inactivation)” value stood at 5.0 min⁻¹.

Take `NC1C(F)CC(C(=O)O)C1Br` (stereo not shown) [Compound 10]: in the test on TgOAT, the KI (inactivation) was 110 µM, the kinact/KI was 583 M⁻¹ s⁻¹ and the “kinact (rate constant of enzyme inactivation)” value amounted to 3.9 min⁻¹.

In the case of `NCc1c(CC(=O)O)cccc1C(F)(F)F` [Compound 11], in test [1], the “inhibition” value is reported as “no effects on active T. gondii infection”. Besides, the “antimalarial activity” value in test [2] is listed as “no antimalarial activity”. In addition, in the test on TgOAT, the “selectivity of inactivation” value was “high specific inactivation towards TgOAT but not GABA-AT or human OAT”; the KI (inactivation) turned out to be 15 µM; the “activity in inactivating TgOAT (in words)” value was “high activity in inactivating TgOAT”; the kinact/KI worked out at 6000 M⁻¹ s⁻¹. Besides, the “kinact (rate constant of enzyme inactivation)” value on TgOAT came out at 5.4 min⁻¹. Further, the “activity against human OAT (in words)” value on human OAT was “weak inactivator”. Further, in the test with GABA-AT, the “activity against GABA-AT (in words)” value was “weak reversible inhibitor”.

For the compound `C[C@@H](F)[C@@H](N)CCC(=O)O` [Compound 12], the negative logarithm of the Ki (pKi) at TgOAT is 2.54.

Take `NCc1cocc1C(=O)O` [Compound 13]: the pKi at TgOAT was under 2.30.

Turning to `NCc1cscc1C(=O)O` [Compound 14], the pKi at TgOAT was 2.38.

With `NCc1csc(C(=O)O)c1` [Compound 15], the negative-log Ki (pKi) on TgOAT was 2.31.

Take `NCc1ccc(C(=O)O)s1` [Compound 16]: the negative-log Ki (pKi) on TgOAT is under 2.30.

Consider `NCc1c[nH]c(C(=O)O)c1` [Compound 17], for which, at TgOAT, the pKi is under 2.30.

`N[C@H](CF)CCC(=O)O` [Compound 18, (S)-4-amino-5-fluoropentanoic acid]: in test [1], the “inhibition” value is “no effects on active T. gondii infection”. Further, in test [2], the “antimalarial activity” value is on record as “no antimalarial activity”. Besides, in the test with TgOAT, the “selectivity of inactivation” value is listed as “high specific inactivation towards TgOAT but not GABA-AT or human OAT”; the KI (inactivation) was found to be 4.6 µM; the “activity in inactivating TgOAT (in words)” value is “high activity in inactivating TgOAT”; the kinact/KI is 36670 M⁻¹ s⁻¹. Further, on TgOAT, the “kinact (rate constant of enzyme inactivation)” value amounted to 10 min⁻¹. In addition, the “activity against human OAT (in words)” value at human OAT is “moderate inactivator”. Further, the “activity against GABA-AT (in words)” value in the test on GABA-AT is on record as “moderate inactivator”.

As to `C=CC(N)CCC(=O)O` (stereo not shown) [Compound 22, 4-am inohex-5-enoic acid, reference compound], in test [3], the “off-target activity at GAD (in words)” value is recorded as “no activity”. In the test with TgOAT, the KI (inactivation) was found to be 440 µM, the second-order inactivation constant (kinact/KI) worked out at 383 M⁻¹ s⁻¹ and the “kinact (rate constant of enzyme inactivation)” value worked out at 9.9 min⁻¹. Besides, the “off-target activity at AspAT (in words)” value in test [4] was “weakly affects”.

As for “gabaculine [Compound 23, reference compound]”, the KI (inactivation) in the test on TgOAT worked out at 0.82 µM. In the test with GABA-AT, the “activity against GABA-AT (in words)” value is recorded as “equally potent irreversible inhibitor”.
